# Measured values published in PubChem BioAssay AID504559 (Johns Hopkins Ion Channel Center, 2011).
# Active and inactive are the calls of the source.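 Rule for the calls: active = dose-dependent block of Kir2.1 potassium channel current at -100 mV within the tested dose range; inactive = no dose-dependent block of that current.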
# Biological target: Inward rectifier potassium channel 2 (Mus musculus) (UniProt P35561)
# Test: Kir2.1 channel inhibitors, concentration series, SAR follow-up, cell-based, IonWorks automated patch clamp, -100 mV (AID 504559)
# Conditions: Kir2.1 cell line, IonWorks patch clamp current at -100 mV; for current change, negative = inhibition: at 30 µM (top of the series)
# Inward rectifier potassium channel 2 (Mus musculus), sequence (P35561 whole entry, looked up): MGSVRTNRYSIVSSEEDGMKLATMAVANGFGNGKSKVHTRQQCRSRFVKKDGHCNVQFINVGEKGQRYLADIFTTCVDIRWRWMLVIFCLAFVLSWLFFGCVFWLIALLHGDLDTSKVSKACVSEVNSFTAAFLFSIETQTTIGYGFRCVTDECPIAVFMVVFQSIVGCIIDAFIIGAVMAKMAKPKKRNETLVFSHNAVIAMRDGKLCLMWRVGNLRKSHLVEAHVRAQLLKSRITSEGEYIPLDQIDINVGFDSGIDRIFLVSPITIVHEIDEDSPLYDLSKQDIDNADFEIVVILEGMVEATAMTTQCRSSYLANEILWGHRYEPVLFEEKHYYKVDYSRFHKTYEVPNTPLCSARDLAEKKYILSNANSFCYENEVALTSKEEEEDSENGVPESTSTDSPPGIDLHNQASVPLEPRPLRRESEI
IC50,"current change, negative = inhibition",Structure (SMILES)
20.5 µM,–,Cc1ccc(C)c(OCCCNCc2ccccc2)c1
–,inactive,Cc1ccc(S(=O)(=O)N[C@H](C)c2ccccc2)cc1
–,inactive,C[C@@H](NS(=O)(=O)c1ccc(Cl)cc1)c1ccccc1
–,inactive,C[C@H](NS(=O)(=O)c1cc(Cl)cc(Cl)c1O)c1ccccc1
–,inactive,C[C@@H](NS(=O)(=O)c1ccccc1Br)c1ccccc1
–,inactive,C[C@@H](NS(=O)(=O)c1cc(Cl)cc(Cl)c1O)c1ccccc1
–,inactive,Cc1ccc2nc(NCc3ccccc3)[nH]c2c1
21.6 µM,–,C[C@H](NS(=O)(=O)c1ccc(Cl)cc1)c1ccccc1
–,inactive,C[C@H](NS(C)(=O)=O)c1ccccc1
–,inactive,C[C@@H](NS(=O)(=O)c1ccccc1)c1ccccc1

# Further lines, the compound ahead of its results:
Structure (SMILES),IC50,"current change, negative = inhibition"
CC(O)CNCCCOc1cccc(Oc2ccccc2)c1 (configuration not stated),11.4 µM,–
C[C@H](NS(=O)(=O)c1cccc(Br)c1)c1ccccc1,30.9 µM,–
C[C@H](NS(=O)(=O)c1ccccc1Br)c1ccccc1,–,inactive
C[C@@H](NS(=O)(=O)c1cccc(Br)c1)c1ccccc1,30.6 µM,–
C[C@@H](NS(C)(=O)=O)c1ccccc1,–,inactive
C[C@H](NS(=O)(=O)c1ccccc1)c1ccccc1,–,inactive
C[C@H](NS(=O)(=O)c1ccc(Br)cc1)c1ccccc1,21.3 µM,–
Cc1ccc2nc(N3CCN(CCO)CC3)nc(-c3ccccc3)c2c1,–,inactive
c1ccc(CNc2c3ccccc3nc3ccccc23)cc1,–,inactive
Cc1noc(C)c1COC(=O)CCN1c2ccccc2Sc2ccccc21,–,inactive
O=C(NCC1CCCCN1)c1cc(OCC(F)(F)F)ccc1OCC(F)(F)F (configuration not stated),–,inactive
Cc1ccc(Nc2cc(C)nc3c(C)cccc23)cc1,–,inactive
